This is an account of results in PubChem BioAssay (NCI).

Some test systems named below: COLO 205 colon; NCI-H226 lung; NCI-H23 lung; SF-539 CNS; SK-OV-3 ovarian; RPMI-8226 leukemia; 786-0 renal; OVCAR-5 ovarian; A498 renal; UO-31 renal.
Assay in all cases: NCI-60 cell line screen, 48 h

Several values for one entry are separate records, joined by “and”; a condition that tells them apart may be missing. Equal entries are not always repeated.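 Protocol summary: plate cells (96-well), add compound at 5 concentrations, incubate 48 h, interpolate endpoints linearly. GI50 is the concentration that inhibits growth by half. Definition used: TGI = concentration required for complete inhibition of growth.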

In the case of `Nc1ncn([C@@H]2S[C@H](CO)[C@@H](O)[C@@H]2F)c(=O)n1`, the GI50 in the assay with COLO 205 colon was 3.57 µM; in the assay with NCI-H226 lung it was 9.99 µM; in the assay with NCI-H23 lung, 0.347 µM; in the assay on SF-539 CNS, 9.8 µM; with SK-OV-3 ovarian, 2.94 µM; in the assay with RPMI-8226 leukemia it was 22.4 µM. The GI50 is 0.337 µM with 786-0 renal, 2.64 µM with OVCAR-5 ovarian, 0.267 µM in the assay with A498 renal and 0.372 µM in the assay with UO-31 renal. Also, the TGI in the assay on COLO 205 colon was above 100 µM; in the assay with NCI-H226 lung, above 100 µM; in the assay with NCI-H23 lung it was above 100 µM; in the assay on SF-539 CNS, above 77.9 µM; in the assay with SK-OV-3 ovarian it was above 100 µM; in the assay on RPMI-8226 leukemia, above 100 µM. Also, the TGI in the assay on 786-0 renal, in the assay on OVCAR-5 ovarian and with UO-31 renal was above 100 µM in each case.

As for `Cn1ncc(-c2ccc3c(=O)[nH]nc(CN)c3c2)c1-c1c(F)c(Cl)cc(OC2CC2)c1C#N`, the GI50 was 11.8 µM and 10.9 µM with COLO 205 colon; 15.7 µM and 13.2 µM in the assay with NCI-H226 lung; 15.3 µM and 14.3 µM with NCI-H23 lung; 14.4 µM and 13.1 µM in the assay with SF-539 CNS; 20.4 µM and 17.4 µM with SK-OV-3 ovarian; 14.9 µM and 16 µM in the assay on RPMI-8226 leukemia. Also, the GI50 was 13.4 µM and 12.3 µM in the assay with 786-0 renal; 20.4 µM and 16.8 µM in the assay with OVCAR-5 ovarian; 16 µM and 14.3 µM with A498 renal; 12.4 µM and 10.3 µM in the assay with UO-31 renal. For the same compound, the TGI with COLO 205 colon is 26.9 µM and 25.1 µM; with NCI-H226 lung it was 32 µM and 27.4 µM; in the assay on NCI-H23 lung, 32 µM and 29.6 µM; with SF-539 CNS, 28 µM and 26.7 µM; with SK-OV-3 ovarian, 40.5 µM and 33.3 µM; with RPMI-8226 leukemia, 47.5 µM and 47.8 µM. Besides, the TGI is 29.5 µM and 26 µM in the assay with 786-0 renal; 77 µM and 44.7 µM with OVCAR-5 ovarian; 29.8 µM and 27.5 µM in the assay on A498 renal; 24.9 µM and 22.1 µM in the assay on UO-31 renal.

As to `FC(F)(F)c1cccc(-c2nc3nc(Cl)c(Cl)nc3[nH]2)c1`, the TGI was 2.98 µM in the assay on COLO 205 colon; 13.5 µM with NCI-H226 lung; 14.7 µM in the assay with NCI-H23 lung; above 27.7 µM in the assay with SF-539 CNS; above 90.1 µM with SK-OV-3 ovarian; 3.5 µM in the assay on RPMI-8226 leukemia. Further, the TGI was above 65.7 µM in the assay on 786-0 renal, 16 µM in the assay with OVCAR-5 ovarian, 6.12 µM in the assay on A498 renal and 3.88 µM with UO-31 renal.

On to `CCc1c2c(nc3ccc(OCc4ccc(B(O)O)cc4)cc13)-c1cc3c(c(=O)n1C2)COC(=O)[C@]3(O)CC`, for which the GI50 in the assay on COLO 205 colon is 0.0855 µM; in the assay with NCI-H226 lung, 0.0187 µM; in the assay on NCI-H23 lung, below 0.01 µM; in the assay with SF-539 CNS, below 0.0117 µM; in the assay with SK-OV-3 ovarian, below 0.01 µM; in the assay with RPMI-8226 leukemia it was 0.184 µM. Moreover, the GI50 was below 0.0174 µM in the assay on 786-0 renal, 0.253 µM in the assay on OVCAR-5 ovarian, 0.0128 µM with A498 renal and 0.031 µM in the assay with UO-31 renal. The TGI with COLO 205 colon is 8.46 µM; in the assay with NCI-H226 lung, 0.339 µM; in the assay on NCI-H23 lung, 0.304 µM; in the assay with SF-539 CNS, 0.155 µM; in the assay on SK-OV-3 ovarian, 0.347 µM; in the assay with RPMI-8226 leukemia, above 100 µM. The TGI with 786-0 renal came to 1.8 µM; in the assay on A498 renal, 0.21 µM; in the assay with UO-31 renal it was 0.913 µM.

In the case of `O=C1C[C@H]2CCCN2[C@@H](c2ccccc2)C1`, the TGI in the assay with COLO 205 colon, in the assay on NCI-H226 lung, with NCI-H23 lung, in the assay with SF-539 CNS, in the assay with SK-OV-3 ovarian and in the assay with RPMI-8226 leukemia was above 100 µM in each case. The TGI in the assay on 786-0 renal, with OVCAR-5 ovarian, in the assay with A498 renal and in the assay with UO-31 renal was above 100 µM throughout.

Consider `CN(C)c1cc2ccccc2oc1=O`, for which the TGI with COLO 205 colon, in the assay with NCI-H226 lung, in the assay on NCI-H23 lung, in the assay with SF-539 CNS, in the assay with RPMI-8226 leukemia and in the assay with 786-0 renal was above 100 µM each time. The TGI in the assay on OVCAR-5 ovarian, in the assay with A498 renal and in the assay with UO-31 renal was above 100 µM each time.

Regarding `c1ccc(NN(Cc2cnccn2)c2ccccc2)cc1`, the TGI with COLO 205 colon, in the assay on NCI-H226 lung, with NCI-H23 lung, in the assay on SF-539 CNS, in the assay with SK-OV-3 ovarian and in the assay with RPMI-8226 leukemia was above 100 µM each time. The TGI in the assay on 786-0 renal, in the assay on OVCAR-5 ovarian and in the assay with A498 renal was above 100 µM each time.

Take `Nc1nc2ccc(-c3nc4ccc5[nH]ncc5c4c4c3CCC4)cc2s1`: the GI50 in the assay with COLO 205 colon is 0.306 µM; in the assay with NCI-H226 lung, 1.1 µM; in the assay on NCI-H23 lung, 0.546 µM; in the assay with SF-539 CNS it was 0.19 µM; in the assay on SK-OV-3 ovarian, 0.473 µM; with RPMI-8226 leukemia it was 0.472 µM. The GI50 with 786-0 renal is 0.343 µM; in the assay on OVCAR-5 ovarian it was 2.64 µM; in the assay on A498 renal, 0.108 µM; in the assay with UO-31 renal it was 0.741 µM. The TGI in the assay with COLO 205 colon is 7.14 µM; in the assay with NCI-H226 lung, 10.1 µM; with NCI-H23 lung it was 8.25 µM; in the assay on SF-539 CNS, 4.15 µM; in the assay with SK-OV-3 ovarian, 2.52 µM; in the assay with RPMI-8226 leukemia, 10.5 µM. Also, the TGI with 786-0 renal is 7.79 µM; with OVCAR-5 ovarian, 11.9 µM; in the assay with A498 renal, 0.624 µM; with UO-31 renal it was 3.58 µM.

With `O=S(=O)(/N=c1\scc(-c2ccccc2)n1-c1ccccc1)c1ccc(N2N=C3c4ccccc4CC3C2c2ccc(Cl)cc2)cc1` (stereo unspecified), the GI50 with COLO 205 colon is 23.6 µM; with NCI-H226 lung it was 94.6 µM; in the assay on NCI-H23 lung, 21 µM; in the assay on SF-539 CNS it was 62.6 µM; in the assay on SK-OV-3 ovarian it was 76.2 µM; in the assay with RPMI-8226 leukemia it was 21.5 µM. Further, the GI50 in the assay with 786-0 renal was 32.7 µM; in the assay on OVCAR-5 ovarian, 38.1 µM; in the assay with A498 renal, 79.8 µM; in the assay with UO-31 renal, 45.4 µM. Also, the TGI was 54.9 µM with COLO 205 colon; above 100 µM with NCI-H226 lung; 51.3 µM in the assay with NCI-H23 lung; above 100 µM in the assay with SF-539 CNS; above 100 µM in the assay on SK-OV-3 ovarian; above 100 µM with RPMI-8226 leukemia. For the same compound, the TGI in the assay on 786-0 renal, in the assay with OVCAR-5 ovarian, in the assay with A498 renal and in the assay with UO-31 renal was above 100 µM throughout.
